Publication PMC9203742 (Nature Communications, 2022)
Where “and” joins values, the source holds several entries; their conditions need not be identical. Equal values may be shown once.

Experiments:
[1] = test system: HEK293 cells, control vector; assay: Inositol-1-phosphate (IP1) accumulation assay, HEK293 cells transfected with control vector; assay type: cell-based; settings: 100 µM Glu; Vec; listed as Glu
[2] = test system: HEK293 cells, vector control; assay: Fura-2 Ca2+ imaging in HEK293 cells transfected with control vector (Vec); assay type: cell-based; settings: single-cell values #1-#20, listed as Glu
[3] = test system: mGlu1 construct not given; assay: Fura-2 Ca2+ imaging in HEK293 cells, source data Suppl Fig1, left group (c0-c8); construct not given; assay type: cell-based, rat; parameters: unit not given here; settings: single-cell values, cells #15-#20; left group of third block; listed as Glu
From the text: (§1) Supplement 41467_2022_30828_MOESM6_ESM.zip/Ojima et al_source data_Suppl Fig.xlsx, sheet "Suppl Fig1" | column: Glu; NiCl2; CuCl2; ZnCl2; CdCl2; Na2PdCl2; Pd(bpy)

[4] = test system: mGlu1 construct not given; assay: Fura-2 Ca2+ imaging in HEK293 cells, source data Suppl Fig1, middle group (c9-c17); construct not given; assay type: cell-based, rat; parameters: unit not given here; settings: single-cell values, cells #15-#20; middle group of third block; listed as Glu
From the text: as §1

[5] = test system: mGlu1 construct not given; assay: Fura-2 Ca2+ imaging in HEK293 cells, source data Suppl Fig1, right group (c18-c26); construct not given; assay type: cell-based, rat; parameters: unit not given here; settings: single-cell values, cells #15-#20; right group of third block; listed as Glu
From the text: as §1

Which “IP1 accumulation, single experiments” value [1] does the source give for `N[C@@H](CCC(=O)O)C(=O)O` [glutamate, reference compound] here?
Its value is 1.025 and 1.123 and 0.98.

And the “Ca2+ response of individual cells (source data Suppl Fig1), Vec” value [2]?
Its value is 0.01056 and 0.06409 and 0.01964 and 0.006185 and 0.01272 and 0.02269 and 0.02795 and 0.001992 and 0.03471 and 0.04057 and 0.0119 and 0.01116 and 0.01651 and 0.008954 and 0.06266 and 0.02138 and 0.004577 and 0.01188 and 0.01429 and 0.0107.

What about the “Ca2+ response of individual cells (source data, sheet Suppl Fig1)” value [3] of the same molecule?
Its value is 0.1813 and 0.3548 and 0.1848 and 0.1996 and 0.1287 and 0.1577.

What about the “Ca2+ response of individual cells (source data, sheet Suppl Fig1)” value [4] of the same molecule?
The value was 0.1431 and 0.7212 and 0.03709 and 0.1609 and 0.01695 and 0.7758.

What about the “Ca2+ response of individual cells (source data, sheet Suppl Fig1)” value [5] of the same molecule?
The value was 0.5202 and 0.5869 and 0.3843 and 0.3042 and 0.505 and 0.02158.
